Values after ≈ are worked out from the molar mass of the structure shown.
Key:
[1] = Aqueous solubility in PBS by HPLC-UV/VIS; format: physicochemical; conditions: phosphate buffered saline, aqueous buffer, kinetic from dmso stock; PBS pH 7.4, 2% DMSO, 24 h at room temperature
In short: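 Compound diluted to 200 μM in PBS pH 7.4 from DMSO stock (2% DMSO final), incubated 24 h at room temperature, then centrifuged. Supernatant analysed by HPLC-UV/VIS; solubility (μM) from principal-peak area versus a 200 μM calibration standard. Range approximately 0.5–200 μM.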

Thrombin = Thrombin (Homo sapiens (Human), UniProt P00734); assay: Dose response assay for protease inhibitors: thrombin; format: biochemical; conditions: selectivity, thrombin over Factor XIa
In short: (§1)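 Fluorogenic AMC-peptide cleavage in 20 mM Hepes pH 7.4, 150 mM NaCl, 0.02% Tween 20; 100 μM stock substrate dilution (Glp-Pro-Arg-AMC for thrombin/trypsin; Pro-Phe-Arg-AMC or Boc-Leu-Gly-Arg-AMC for Factor Xa). Enzyme diluted to 0.5 nM, added last to two-fold compound series; kinetic read at 30° C, 30 min (Factor Xa 60 min); IC50 fitted.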

[2] = Plasma protein binding by equilibrium dialysis; format: in vitro ADME; conditions: both sexes, pH 7.4, pooled human plasma, 4 hours at 37° C., read-out: PPB (%)
In short: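 Pooled mixed-gender human plasma spiked with compound at 10 μM was dialysed against PBS pH 7.4 for 4 h at 37°C. Both compartments were quantified by HPLC-MS/MS, and % bound was calculated from plasma vs buffer peak areas.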

Trypsin = assay: Dose response assay for protease inhibitors: trypsin; format: biochemical; conditions: selectivity, trypsin over Factor XIa
In short: as §1

Factor Xa = Factor Xa (Homo sapiens (Human), UniProt P00742); assay: Dose response assay for protease inhibitors: Factor Xa; format: biochemical; conditions: selectivity, Factor Xa over Factor XIa
Factor Xa, sequence (P00742 235-488): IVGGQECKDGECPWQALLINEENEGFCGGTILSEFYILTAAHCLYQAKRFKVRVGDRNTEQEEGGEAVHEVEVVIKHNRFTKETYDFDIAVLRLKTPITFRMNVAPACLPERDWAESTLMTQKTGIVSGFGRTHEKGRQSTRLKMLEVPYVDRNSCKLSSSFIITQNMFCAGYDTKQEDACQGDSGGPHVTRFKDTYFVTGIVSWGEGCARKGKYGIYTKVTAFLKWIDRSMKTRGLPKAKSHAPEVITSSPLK
Factor Xa, sequence (P00742 41-179 partner): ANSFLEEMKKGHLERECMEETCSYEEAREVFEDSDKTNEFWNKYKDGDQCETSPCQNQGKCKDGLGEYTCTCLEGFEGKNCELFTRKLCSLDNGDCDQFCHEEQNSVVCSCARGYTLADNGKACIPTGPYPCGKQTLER
In short: as §1

| Structure (SMILES) | solubility at 24 h [1] [µM] | Ratio: Thrombin/FXIa (Thrombin) | fraction unbound at 4 h, 10 μM [2] | Ratio: FXa/FXIa (Factor Xa) | Ratio: Trypsin/FXIa (Trypsin) |
| --- | --- | --- | --- | --- | --- |
| CC(C)[C@@H](NC(=O)N1C(=O)[C@H](Cc2ccnc(N)c2)[C@H]1C(=O)N(C)c1ccn(C)n1)C1CCCCC1 [Compound 1-57, (2S,3R)-3-((2-aminopyridin-4-yl)methyl)-N2-(1-methyl-1H-pyrazol-3-yl)-N1-((R)-1-cyclohexyl-2-methylpropyl)-N2-methyl-4-oxoazetidine-1,2-dicarboxamide] | 10 to 100 (≈ 4.96 to 49.6 µg/mL) | H (“H” indicates 101-1000) | < 0.05 | I (“I” indicates > 500) | G (“G” indicates 1-100) |
| C[C@@H](NC(=O)N1C(=O)[C@H](Cc2ccnc(N)c2)[C@H]1C(=O)N(C)c1ccn(C)n1)C1CCCCC1 [Compound 1-50, (2S,3R)-3-((2-aminopyridin-4-yl)methyl)-N2-(1-methyl-1H-pyrazol-3-yl)-N1-((R)-1-cyclohexylethyl)-N2-methyl-4-oxoazetidine-1,2-dicarboxamide] | > 100 | H (“H” indicates 101-1000) | 0.1 to 0.5 | I (“I” indicates > 500) | G (“G” indicates 1-100) |
| CC[C@@H](NC(=O)N1C(=O)[C@H](Cc2ccnc(N)c2)[C@H]1C(=O)N(C)c1cn(C)cn1)c1ccccc1 [Compound 1-90, (2S,3R)-3-((2-aminopyridin-4-yl)methyl)-N2-(1-methyl-1H-imidazol-4-yl)-N1-((R)-1-phenylpropyl)-N2-methyl-4-oxoazetidine-1,2-dicarboxamide] | > 100 | H (“H” indicates 101-1000) | 0.1 to 0.5 | I (“I” indicates > 500) | G (“G” indicates 1-100) |
| CC[C@@H](NC(=O)N1C(=O)[C@H](Cc2ccnc(N)c2)[C@H]1C(=O)N(C)c1ccn(C)n1)c1ccccc1 [Compound 1-3, (2S,3R)-3-((2-aminopyridin-4-yl)methyl)-N2-(1-methyl-1H-pyrazol-3-yl)-N1-((R)-1-phenylpropyl)-N2-methyl-4-oxoazetidine-1,2-dicarboxamide] | > 100 | H (“H” indicates 101-1000) | 0.1 to 0.5 | I (“I” indicates > 500) | G (“G” indicates 1-100) |
| CN(C(=O)[C@@H]1[C@@H](Cc2ccnc(N)c2)C(=O)N1C(=O)N[C@@H](C1CCCCC1)C(F)(F)F)c1ccn(C)n1 [Compound 1-32, (2S,3R)-3-((2-aminopyridin-4-yl)methyl)-N2-(1-methyl-1H-pyrazol-3-yl)-N1-((S)-1-cyclohexyl-2,2,2-trifluoroethyl)-N2-methyl-4-oxoazetidine-1,2-dicarboxamide] | > 100 | H (“H” indicates 101-1000) | 0.05 to 0.09 | I (“I” indicates > 500) | G (“G” indicates 1-100) |

Further lines, with some results ahead:

| solubility at 24 h [1] [µM] | Ratio: Thrombin/FXIa (Thrombin) | fraction unbound at 4 h, 10 μM [2] | Ratio: FXa/FXIa (Factor Xa) | Structure (SMILES) | Ratio: Trypsin/FXIa (Trypsin) |
| --- | --- | --- | --- | --- | --- |
| > 100 | I (“I” indicates > 500) | 0.1 to 0.5 | I (“I” indicates > 500) | CC[C@@H](NC(=O)N1C(=O)[C@H](Cc2ccnc(N)c2)[C@H]1C(=O)N(C)c1nccn1C)c1ccccc1 [Compound 1-13, (2S,3R)-3-((2-aminopyridin-4-yl)methyl)-N2-(1-methyl-1H-imidazol-2-yl)-N1-((R)-1-phenylpropyl)-N2-methyl-4-oxoazetidine-1,2-dicarboxamide] | G (“G” indicates 1-100) |
| > 100 | H (“H” indicates 101-1000) | 0.1 to 0.5 | I (“I” indicates > 500) | CC[C@@H](NC(=O)N1C(=O)[C@H](Cc2ccnc(NC)c2)[C@H]1C(=O)N(C)c1nccn1C)c1cccc(Cl)c1 [Compound 1-41, (2S,3R)-3-((2-methylaminopyridin-4-yl)methyl)-N2-(1-methyl-1H-imidazol-2-yl)-N1-((R)-1-(3-chlorophenyl)propyl)-N2-methyl-4-oxoazetidine-1,2-dicarboxamide] | G (“G” indicates 1-100) |
| > 100 | H (“H” indicates 101-1000) | 0.1 to 0.5 | I (“I” indicates > 500) | CC[C@@H](NC(=O)N1C(=O)[C@H](Cc2cc(C)nc(NC)c2)[C@H]1C(=O)N(C)c1nccn1C)c1ccccc1 [Compound 1-45, (2S,3R)-3-((2-methylamino-6-methylpyridin-4-yl)methyl)-N2-(1-methyl-1H-imidazol-2-yl)-N1-((R)-1-phenylpropyl)-N2-methyl-4-oxoazetidine-1,2-dicarboxamide] | G (“G” indicates 1-100) |
| > 100 | H (“H” indicates 101-1000) | 0.05 to 0.09 | H (“H” indicates 101-1000) | CC[C@@H](NC(=O)N1C(=O)[C@H](Cc2ccnc(N)c2)[C@H]1C(=O)N(C)c1cscn1)c1cccc(Cl)c1 [Compound 1-17, (2S,3R)-3-((2-aminopyridin-4-yl)methyl)-N2-(4-thiazolyl)-N1-((R)-1-(3-chlorophenyl)propyl)-N2-methyl-4-oxoazetidine-1,2-dicarboxamide] | G (“G” indicates 1-100) |
| > 100 | H (“H” indicates 101-1000) | < 0.5 | I (“I” indicates > 500) | CC[C@@H](NC(=O)N1C(=O)[C@H](Cc2ccnc(N)c2)[C@H]1C(=O)N(C)c1nccn1C)c1ccc(C)nc1 [Compound 1-81, (2S,3R)-3-((2-aminopyridin-4-yl)methyl)-N2-(1-methyl-1H-imidazol-2-yl)-N1-((R)-1-(6-methylpyridin-3-yl)propyl)-N2-methyl-4-oxoazetidine-1,2-dicarboxamide] | G (“G” indicates 1-100) |
| > 100 | I (“I” indicates > 500) | 0.1 to 0.5 | I (“I” indicates > 500) | CC[C@@H](NC(=O)N1C(=O)[C@H](Cc2cc(C)nc(N)c2)[C@H]1C(=O)N(C)c1ccnn1C)c1ccc(C)c(F)c1 [Compound 1-155, (2S,3R)-3-((2-amino-6-methylpyridin-4-yl)methyl)-N2-(1-methyl-1H-pyrazol-5-yl)-N1-((R)-1-(3-fluoro-4-methylphenyl)propyl)-N2-methyl-4-oxoazetidine-1,2-dicarboxamide] | G (“G” indicates 1-100) |
| > 100 | H (“H” indicates 101-1000) | 0.05 to 0.09 | I (“I” indicates > 500) | CC[C@@H](NC(=O)N1C(=O)[C@H](Cc2cc(C)nc(NC)c2)[C@H]1C(=O)N(C)c1nccn1C)c1cccc(Cl)c1 [Compound 1-46, (2S,3R)-3-((2-methylamino-6-methylpyridin-4-yl)methyl)-N2-(1-methyl-1H-imidazol-2-yl)-N1-((R)-1-(3-chlorophenyl)propyl)-N2-methyl-4-oxoazetidine-1,2-dicarboxamide] | G (“G” indicates 1-100) |

— patent publication US11691962B2 (eXIthera Pharmaceuticals, Inc., priority 2018, dated 2023)
